The values that follow come from ChEMBL document CHEMBL4007423, “Discovery of quinone-directed antitumor agents selectively bioactivated by NQO1 over CPR with improved safety profile” (Eur J Med Chem, 2017).

pIC50: −log10 of the molar value. Calls of active or inactive are those of the source. The rule behind the calls is not given here.

Data set [1] has as its target T1, NADPH--cytochrome P450 reductase (Homo sapiens, UniProt P16435).
T1 sequence (P16435 whole entry): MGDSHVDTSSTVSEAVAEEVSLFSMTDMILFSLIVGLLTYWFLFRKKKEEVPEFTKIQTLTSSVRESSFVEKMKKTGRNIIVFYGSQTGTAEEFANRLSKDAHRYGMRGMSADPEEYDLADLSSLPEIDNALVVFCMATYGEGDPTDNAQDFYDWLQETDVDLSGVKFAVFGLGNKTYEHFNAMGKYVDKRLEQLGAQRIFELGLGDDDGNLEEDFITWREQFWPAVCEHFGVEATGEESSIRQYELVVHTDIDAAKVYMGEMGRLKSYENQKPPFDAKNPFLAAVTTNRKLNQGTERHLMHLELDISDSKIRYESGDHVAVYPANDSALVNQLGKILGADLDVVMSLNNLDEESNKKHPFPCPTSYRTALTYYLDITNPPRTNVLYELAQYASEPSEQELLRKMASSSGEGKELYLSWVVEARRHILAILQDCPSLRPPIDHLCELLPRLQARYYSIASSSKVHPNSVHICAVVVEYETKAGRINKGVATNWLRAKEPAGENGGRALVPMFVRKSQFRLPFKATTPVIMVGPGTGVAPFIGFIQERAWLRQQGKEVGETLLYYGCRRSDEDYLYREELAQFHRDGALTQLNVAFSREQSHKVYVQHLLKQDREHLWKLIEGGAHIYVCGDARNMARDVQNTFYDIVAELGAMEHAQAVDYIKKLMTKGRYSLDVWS
Put plainly: Substrate activity at recombinant human CPR expressed in baculovirus infected insect cells assessed as compound reduction rate by measuring NADPH consumption per umol of enzyme preincubated for 3 mins followed by NADPH addition measured for 5 mins at 2 sec time interval by UV-Visible spectroscopic method. It counts as ADME.

For another data set, the species on record is Homo sapiens. Put plainly: Selectivity ratio of compound reduction rate catalyzed by recombinant human NQO1 expressed in Escherichia coli to compound reduction rate catalyzed by recombinant human CPR expressed in baculovirus infected insect cells.
Data set [2] can be described thus: Electrochemical behavior of the compound assessed as electrochemical redox potential with reference to ferrocene at 1 mM using Ag/AgCl reference electrode measured up to -2 V at potential sweep rates of 50 mV/s by cyclic voltammetry.
Data set [3] can be described thus: Selectivity ratio of IC50 for substrate activity at CPR in human L02 cells assessed as cell growth inhibition to IC50 for substrate activity at NQO1 in human A549 cells assessed as cell growth inhibition.
Data set [4] has as its system A549. Put plainly: Antitumor activity against human A549 cells xenografted in athymic nude mouse assessed as tumor growth inhibition at 30 mg/kg, iv administered every other day for 3 weeks measured twice per week during compound dosing relative to control. It counts as functional. The following applies: 504 h, read-out: TGI. In general terms: Xenograft models place foreign cells or tissue in a host animal.

Data set [5] concerns Mus musculus. Put plainly: Toxicity in athymic nude mouse xenografted with human A549 cells assessed as change in body weight at 15 to 30 mg/kg, iv administered every other day for 3 weeks measured twice per week during compound dosing. Particulars: in vivo, 504 h. It counts as organism-based.
The subject of data set [6] is A549. Put plainly: Antitumor activity against human A549 cells xenografted in athymic nude mouse assessed as tumor growth inhibition at 15 mg/kg, iv administered every other day for 3 weeks measured twice per week during compound dosing. It counts as functional, organism-based.
The subject of data set [7] is Mus musculus. Put plainly: Toxicity in athymic nude mouse xenografted with human A549 cells assessed as change in body weight at 30 mg/kg, iv administered every other day for 3 weeks measured twice per week during compound dosing. The following applies: in vivo, 504 h. Type of data set: organism-based.
Data set [8] concerns A549. Put plainly: Cytotoxicity against NQO1 inhibitor dicoumarol pretreated human A549 cells assessed as cell growth inhibition treated for 24 hrs measured after 72 hrs by MTT assay. Type of data set: functional, cell-based. Background: Formazan colour is commonly taken as a measure of viable cells.
For the next data set, the system named is NCI-H596. Put plainly: Cytotoxicity against NQO1-deficient human NCI-H596 cells assessed as cell growth inhibition treated for 24 hrs measured after 72 hrs by MTT assay. Type of data set: functional, cell-based.
For data set [9], the target named is T1, NADPH--cytochrome P450 reductase. Put plainly: Substrate activity at CPR in human L02 cells assessed as CPR-mediated one-electron reduction of compound by measuring cell growth inhibition at 20 to 100 uM treated for >8 hrs measured after 72 hrs by MTT assay. Type of data set: cell-based.

Regarding `CC1(C)C=CC2=C(O1)C(=O)c1ccccc1C2=O` [DEHYDRO-ALPHA-LAPACHONE], the figures for the Activity in [1] and in data set [2] were 852 µmol/min and -1.22 V, respectively. The Selectivity ratio in the data set filed under Homo sapiens stood at 0.91.

As for `Cc1cc(=O)n(C)c2c1C(=O)C1=C(C=CC(C)(C)O1)C2=O`, the Activity in data set [1] was 1422 µmol/min; in data set [2], -0.9 V. Further, the Selectivity ratio in the data set listed under Homo sapiens is 0.81.

For the compound `CC1(C)CC2=C(O1)c1ccccc1C(=O)C2=O` [NOR-BETA-LAPACHONE], the Activity in data set [1] came out at 1427 µmol/min. Also, the Selectivity ratio in the data set listed under Homo sapiens amounted to 0.52.

As for `CC1OC2=C(C(=O)c3ccccc3C2=O)C1(C)C` (stereo not drawn) [ALPHA-DUNNIONE], the figures for the Activity in data set [1] and in data set [2] were 1011 µmol/min and -1.19 V, respectively. Moreover, in the data set filed under Homo sapiens, the Selectivity ratio amounted to 0.72.

Regarding `O=C1C(=O)c2ccoc2-c2ccccc21`, the Activity in [1] is 1221 µmol/min; in [2], -0.98 V. The Selectivity ratio in the data set filed under Homo sapiens was determined as 1.18.

With `CC1OC2=C(C(=O)C(=O)c3ccccc32)C1C` (configuration not stated), the Activity in data set [1] came out at 659 µmol/min. Also, in the data set filed under Homo sapiens, the Selectivity ratio was 1.1.

As to `COc1ccc2c(c1)C(=O)C(=O)C1=C2OC(C)C1(C)C` (configuration not stated), the figures for the Activity in data set [1] and in [2] were 782 µmol/min and -1.09 V, respectively.

As to `CCc1coc2c1C(=O)C(=O)c1ccc(C)cc1-2`, the Activity in data set [1] was found to be 1014 µmol/min. The Selectivity ratio in the data set listed under Homo sapiens came to 1.17.

For the compound `Cc1cc2c(cc1C)-c1occc1C(=O)C2=O`, in [1], the Activity is 400 µmol/min.

As for `CCc1coc2c1C(=O)C(=O)c1cc(C)ccc1-2`, the “Ratio IC50” value in [3] turned out to be 8.06. Besides, the Activity in data set [1] is 796 µmol/min. In the data set listed under Homo sapiens, the Selectivity ratio was found to be 1.63.

With `Cc1coc2c1C(=O)C(=O)c1c(C)ccc(C)c1-2`, the “Ratio IC50” value in data set [3] is reported as 5.86. Also, the Activity in [1] is 672 µmol/min; in [2] it was -1.07 V. The Selectivity ratio in the data set filed under Homo sapiens is 1.38.

In the case of `Cc1cc2c(cc1C)-c1occ(C)c1C(=O)C2=O`, the “Ratio IC50” value in data set [3] turned out to be 10.6. Moreover, in the data set with A549 [4], the inhibition in vivo at 30 mg/kg stood at 67.5%. The Activity result in the data set on Mus musculus [5] was “Non-Toxic”; in [1] it was 142 µmol/min; in the data set with Mus musculus [7], “Non-Toxic”; in [2] it was -1.09 V. For the same compound, the TGI result in the data set on A549 [6] was “Active”. Moreover, the pIC50 – broadly, −log10 of the IC50, conventionally taken in molar units – with A549 [8] was 4.68; in the data set with NCI-H596, 4.46.

On to `CC1(C)CCC2=C(O1)C(=O)c1ccccc1C2=O` [ALPHA-LAPACHONE], for which the Activity was 1010 µmol/min in data set [1] and -1.22 V in data set [2]. In addition, the Selectivity ratio in the data set listed under Homo sapiens is 0.72.

`Cc1ccc2c(c1)C(=O)C(=O)c1c(C)coc1-2`: in data set [3], the “Ratio IC50” value was 2.59. Moreover, the Activity is 891 µmol/min in [1] and -1.04 V in data set [2]. Besides, in the data set filed under Homo sapiens, the Selectivity ratio was determined as 1.82.

On to `COc1ccc2c(c1)C1=C(C(=O)C2=O)C(C)(C)C(C)O1` (configuration not stated), for which the figures for the Activity in data set [1] and in data set [2] were 812 µmol/min and -1.13 V, respectively.

As to `COc1cccc2c1C1=C(C(=O)C2=O)C(C)(C)C(C)O1` (configuration not stated), the Activity was 764 µmol/min in data set [1] and -1.1 V in [2].

With `CCc1coc2c1C(=O)C(=O)c1ccccc1-2`, the Activity in data set [1] was determined as 1382 µmol/min. In the data set listed under Homo sapiens, the Selectivity ratio is 0.54.

For `CC1(C)CCC2=C(O1)c1ccccc1C(=O)C2=O` [LAPACHONE], the inhibition in vivo at 30 mg/kg in the data set on A549 [4] was found to be 70.7%. Further, the values for the Activity in data set [1] and in data set [2] were 923 µmol/min and -1.02 V, respectively. Further, in data set [9], the “growth inhibition (GI)” value is “Active”.

On to `Cc1ccc2c(c1)-c1occ(C)c1C(=O)C2=O`, for which, in [3], the “Ratio IC50” value amounted to 1.54. The Activity in [1] is 835 µmol/min; in data set [2], -1.05 V. Also, in the data set listed under Homo sapiens, the Selectivity ratio was determined as 1.25.

As for `CC1OC2=C(C(=O)C(=O)c3ccccc32)C1(C)C` (configuration not stated), the Activity was 1437 µmol/min in data set [1] and -1.01 V in data set [2]. Further, the Selectivity ratio in the data set listed under Homo sapiens came to 0.7.

Turning to `CC1CC2=C(O1)c1ccccc1C(=O)C2=O` (configuration not stated), the Activity in [1] amounted to 905 µmol/min. Moreover, the Selectivity ratio in the data set filed under Homo sapiens amounted to 0.71.

For `Cc1coc2c1C(=O)C(=O)c1ccccc1-2`, the Activity in data set [1] was 1201 µmol/min; in data set [2], -1.03 V. Besides, the Selectivity ratio in the data set listed under Homo sapiens was 0.63.

Consider `CCc1coc2c1C(=O)C(=O)c1cc(C)c(C)cc1-2`, for which the Activity in data set [1] was found to be 818 µmol/min.
